In patent US20230226230A1, “THIOPURINE-BASED COMPOUND, COMPOSITION, METHOD OF PREPARATION AND APPLICATIONS” (SEECURE TAIWAN CO., LTD., priority 2021, published 2023):
Entries after “also recorded” stand apart in the source; their conditions may differ.

Columns and labels:
[1] = system: various human lymphoma cells (mantle cell lines); assay: In vitro MTT cytotoxicity assay, human lymphoma cells; assay type: cell-based
Excerpt: (§1) Effect of Compound SC-06-K analogues were selected to test their feasibility against representative mantle cell lines and diffuse large B-cell lymphoma (DLBCL) cell lines using cell viability assays.

[2] = system: human diffuse large B-cell lymphoma cells; assay: In vitro MTT cytotoxicity assay, DLBCL cells; assay type: cell-based; conditions: various human diffuse large B-cell lymphoma cells
Excerpt: as §1

[3] = system: MDA-MB-231 tumors; assay: Imaging of nude mice bearing breast tumors, MDA-MB-231 tumor; conditions: MDA-MB-231, at 0.5 hrs
[4] = system: MCF-7 tumors; assay: Imaging of nude mice bearing breast tumors, MCF-7 tumor; conditions: MCF-7, at 0.5 hrs

SMILES	MTT cytotoxicity [1]	MTT cytotoxicity [2]	Tumor/muscle count density ratios [3]	Tumor/muscle count density ratios [4]
Cn1cnc([N+](=O)[O-])c1Sc1ncnc2c1ncn2CC(O)CN1CCNCCNCCNCC1 (stereo not shown) [SC-06-K-1, Cyclen-Hydroxypropyl-Azathioprine Conjugate]	inhibited cancer cells in dose-dependent manners; also recorded: inhibited cancer cells in a dose-dependent manner	inhibited various human diffuse large B-cell lymphoma cells in a dose-dependent manner; also recorded: inhibited cancer cells in a dose-dependent manner	–	–
OC[C@H]1OC(O)[C@H]([18F])[C@@H](O)[C@@H]1O (stereo partly shown) [^18F-FDG, 2′-fluorodeoxyglucose]	–	–	0.25	0.28
